Measured values as given in article PMC9229843, “Cancer-Related Somatic Mutations in Transmembrane Helices Alter Adenosine A1 Receptor Pharmacology” (Molecules, 2022).
Residue numbers refer to the chain shown, from its start.

Columns and labels:
[1] = molecular target: T1, hA1AR S246T^6.47 (Homo sapiens, UniProt P30542, S246T); settings: [35S]GTPγS; ratio over basal activity of wild type hA1AR
T1 sequence (P30542 1-326 S246T): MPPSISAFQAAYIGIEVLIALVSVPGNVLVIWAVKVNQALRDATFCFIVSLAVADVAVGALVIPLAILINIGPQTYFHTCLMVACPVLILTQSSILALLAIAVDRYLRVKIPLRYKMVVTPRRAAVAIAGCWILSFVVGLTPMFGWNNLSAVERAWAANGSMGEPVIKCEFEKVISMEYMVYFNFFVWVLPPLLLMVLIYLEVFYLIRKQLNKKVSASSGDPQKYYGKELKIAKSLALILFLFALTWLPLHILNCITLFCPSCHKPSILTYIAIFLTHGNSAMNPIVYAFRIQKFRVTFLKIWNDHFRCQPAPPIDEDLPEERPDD
Protocol: (§1) Transient transfection of CHO cells with wild type or mutated hA1AR plasmid constructs was performed using a polyethylenimine (PEI) method. Cells were seeded in 10-cm culture dishes to achieve 50–60% confluency 24 h prior to transfection. On the day of transfection, cells were transfected with a PEI: DNA ratio of 3:1 and a plasmid DNA amount of 10 μg/dish. Moreover, 24 h post-transfection, the medium was refreshed, and 48 h after transfection, cells were collected and membranes were prepared as previously described. Membranes were aliquoted in 250 or 100 μL and stored at −80 °C. Membrane protein concentrations were determined using the BCA method.
(§2) [^35S]GTPγS binding assays were adapted from a previously published method. […] Then, 20 µL of [^35S]GTPγS (final concentration of 0.3 nM) was added to each well, followed by 90 min of incubation at 25 °C. Incubations were terminated and filter-bound radioactivity was measured as described above.
(§3) All experimental data were analyzed by GraphPad Prism 7.0 or 8.0 (GraphPad Software Inc., San Diego, CA, USA). Data from yeast liquid growth and [^35S]GTPγS binding assays were analyzed by non-linear regression using “log (agonist) vs. response (three parameters)” or “log (inhibitor) vs. response (three parameters)” to obtain potency (EC50), inhibitory potency (IC50), and efficacy (Emax or Imax) values. The radioligand displacement curves were obtained from a statistically preferred one-site or two-site binding model. pKi values were calculated from pIC50 values using the Cheng–Prusoff equation, where KD values were obtained from the homologous competition assays from this study and calculated by non-linear regression using “one site–homologous” [62].

[2] = molecular target: T2, hA1AR W188C^5.46 (Homo sapiens, UniProt P30542, W188C)
T2 sequence (P30542 1-326 W188C): T1 sequence (P30542 1-326 S246T) with W188C, T246S
Protocol: as §1, §2, §3

In the case of `OC[C@H]1O[C@@H](n2cnc3c(NC4CCCC4)ncnc32)[C@H](O)[C@@H]1O` [CPA, N^6-cyclopentyladenosine], the Emax [1] is reported as 1.21 ± 0.10, the Emax ([2]; [35S]GTPγS, ratio over basal activity of wild type hA1AR) is reported as 1.94 ± 0.02 and the “decrease in the potency value versus wild type” value ([2]; mammalian system) is reported as 10 fold.
